Calls of active or inactive are those of the source. The calls are words filed in the database; no cut-off is given here.
Assays:
[1] = system: SH-SY5Y; assay: Neuroprotective activity against H2O2-induced cytotoxicity in human SH-SY5Y cells assessed as cell viability at 10 uM pretreated for 2 hrs followed by H2O2 challenge and measured after 24 hrs by MTT assay relative to control; type: functional; conditions: for viability at 10 µM: read-out: Activity
[2] = system: RAW264.7; assay: Antiinflammatory activity in mouse RAW264.7 cells assessed as inhibition of LPS-induced nitric oxide production at 10 uM preincubated for 2 hrs followed by LPS stimulation and measured after 24 hrs by Griess assay relative to control; type: functional

Compound	viability at 10 µM [1]	inhibition at 10 µM [2]	Activity [1]
CC(C)CN(C)C(=O)O[C@H]1CC[C@@]2(C)C(=CC[C@H]3[C@@H]4C[C@@H]5O[C@]6(CC[C@@H](C)CO6)[C@@H](C)[C@@H]5[C@@]4(C)CC[C@@H]32)C1	17.7%	–	–
C[C@@H]1CC[C@@]2(OC1)O[C@H]1C[C@H]3[C@@H]4CC=C5C[C@@H](OC(=O)N(C)Cc6ccc(F)cc6)CC[C@]5(C)[C@H]4CC[C@]3(C)[C@H]1[C@@H]2C	10.7%	–	–
Cc1cccc(CNC(=O)O[C@H]2CC[C@@]3(C)C(=CC[C@H]4[C@@H]5C[C@@H]6O[C@]7(CC[C@@H](C)CO7)[C@@H](C)[C@@H]6[C@@]5(C)CC[C@@H]43)C2)c1	14.2%	–	–
C[C@@H]1CC[C@@]2(OC1)O[C@H]1C[C@H]3[C@@H]4CC=C5C[C@@H](OC(=O)N(C)Cc6ccc(Cl)cc6)CC[C@]5(C)[C@H]4CC[C@]3(C)[C@H]1[C@@H]2C	43.9%	12.5%	–
COc1ccc(CN(C)C(=O)O[C@H]2CC[C@@]3(C)C(=CC[C@H]4[C@@H]5C[C@@H]6O[C@]7(CC[C@@H](C)CO7)[C@@H](C)[C@@H]6[C@@]5(C)CC[C@@H]43)C2)cc1	19.4%	–	–
C[C@@H]1CC[C@@]2(OC1)O[C@H]1C[C@H]3[C@@H]4CC=C5C[C@@H](OC(=O)N6CCCC6)CC[C@]5(C)[C@H]4CC[C@]3(C)[C@H]1[C@@H]2C	63.2%	16.5%	–
Cc1ccc(CN(C)C(=O)O[C@H]2CC[C@@]3(C)C(=CC[C@H]4[C@@H]5C[C@@H]6O[C@]7(CC[C@@H](C)CO7)[C@@H](C)[C@@H]6[C@@]5(C)CC[C@@H]43)C2)cc1	–	–	inactive
C[C@@H]1CC[C@@]2(OC1)O[C@H]1C[C@H]3[C@@H]4CC=C5C[C@@H](OC(=O)NCc6cccc(F)c6)CC[C@]5(C)[C@H]4CC[C@]3(C)[C@H]1[C@@H]2C	27.4%	–	–
COc1ccccc1CNC(=O)O[C@H]1CC[C@@]2(C)C(=CC[C@H]3[C@@H]4C[C@@H]5O[C@]6(CC[C@@H](C)CO6)[C@@H](C)[C@@H]5[C@@]4(C)CC[C@@H]32)C1	11.3%	–	–
C[C@@H]1CC[C@@]2(OC1)O[C@H]1C[C@H]3[C@@H]4CC=C5C[C@@H](OC(=O)N6CCN(C)CC6)CC[C@]5(C)[C@H]4CC[C@]3(C)[C@H]1[C@@H]2C	3.6%	–	–
C[C@@H]1CC[C@@]2(OC1)O[C@H]1C[C@H]3[C@@H]4CC=C5C[C@@H](OC(=O)N6CCN(Cc7ccc(Cl)cc7)CC6)CC[C@]5(C)[C@H]4CC[C@]3(C)[C@H]1[C@@H]2C	4.5%	–	–
C[C@@H]1CC[C@@]2(OC1)O[C@H]1C[C@H]3[C@@H]4CC=C5C[C@@H](OC(=O)NCc6ccncc6)CC[C@]5(C)[C@H]4CC[C@]3(C)[C@H]1[C@@H]2C	42.1%	11.8%	–
C[C@@H]1CC[C@@]2(OC1)O[C@H]1C[C@H]3[C@@H]4CC=C5C[C@@H](OC(=O)NCc6cccc(Cl)c6)CC[C@]5(C)[C@H]4CC[C@]3(C)[C@H]1[C@@H]2C	13.7%	–	–
C[C@@H]1CC[C@@]2(OC1)O[C@H]1C[C@H]3[C@@H]4CC=C5C[C@@H](OC(=O)NC6CC6)CC[C@]5(C)[C@H]4CC[C@]3(C)[C@H]1[C@@H]2C	–	–	inactive
Cc1ccc(CNC(=O)O[C@H]2CC[C@@]3(C)C(=CC[C@H]4[C@@H]5C[C@@H]6O[C@]7(CC[C@@H](C)CO7)[C@@H](C)[C@@H]6[C@@]5(C)CC[C@@H]43)C2)cc1	26.3%	–	–
COc1cc(CN2CCN(C(=O)O[C@H]3CC[C@@]4(C)C(=CC[C@H]5[C@@H]6C[C@@H]7O[C@]8(CC[C@@H](C)CO8)[C@@H](C)[C@@H]7[C@@]6(C)CC[C@@H]54)C3)CC2)ccc1O	23.1%	–	–
C[C@@H]1CC[C@@]2(OC1)O[C@H]1C[C@H]3[C@@H]4CC=C5C[C@@H](OC(=O)NCc6ccccc6Cl)CC[C@]5(C)[C@H]4CC[C@]3(C)[C@H]1[C@@H]2C	8.9%	–	–
C[C@@H]1CC[C@@]2(OC1)O[C@H]1C[C@H]3[C@@H]4CC=C5C[C@@H](OC(=O)N6CCN(Cc7ccccc7)CC6)CC[C@]5(C)[C@H]4CC[C@]3(C)[C@H]1[C@@H]2C	11.2%	–	–
CCCCNC(=O)O[C@H]1CC[C@@]2(C)C(=CC[C@H]3[C@@H]4C[C@@H]5O[C@]6(CC[C@@H](C)CO6)[C@@H](C)[C@@H]5[C@@]4(C)CC[C@@H]32)C1	47.8%	11%	–
C[C@@H]1CC[C@@]2(OC1)O[C@H]1C[C@H]3[C@@H]4CC=C5C[C@@H](OC(=O)NCc6ccc(F)cc6)CC[C@]5(C)[C@H]4CC[C@]3(C)[C@H]1[C@@H]2C	60.1%	18.6%	–

Compound	viability at 10 µM [1]	inhibition at 10 µM [2]	Activity [1]
Cc1ccccc1CNC(=O)O[C@H]1CC[C@@]2(C)C(=CC[C@H]3[C@@H]4C[C@@H]5O[C@]6(CC[C@@H](C)CO6)[C@@H](C)[C@@H]5[C@@]4(C)CC[C@@H]32)C1	7.9%	–	–
C[C@@H]1CC[C@@]2(OC1)O[C@H]1C[C@H]3[C@@H]4CC=C5C[C@@H](OC(=O)N6CCN(Cc7ccc(O)cc7)CC6)CC[C@]5(C)[C@H]4CC[C@]3(C)[C@H]1[C@@H]2C	9.7%	–	–
C[C@@H]1CC[C@@]2(OC1)O[C@H]1C[C@H]3[C@@H]4CC=C5C[C@@H](OC(=O)N6CCCCC6)CC[C@]5(C)[C@H]4CC[C@]3(C)[C@H]1[C@@H]2C	36.7%	12%	–
C[C@@H]1CC[C@@]2(OC1)O[C@H]1C[C@H]3[C@@H]4CC=C5C[C@@H](OC(=O)NC6CCCCC6)CC[C@]5(C)[C@H]4CC[C@]3(C)[C@H]1[C@@H]2C	34.4%	11.6%	–
C[C@@H]1CC[C@@]2(OC1)O[C@H]1C[C@H]3[C@@H]4CC=C5C[C@@H](OC(=O)NCc6ccc(C(F)(F)F)cc6)CC[C@]5(C)[C@H]4CC[C@]3(C)[C@H]1[C@@H]2C	–	–	inactive
C[C@@H]1CC[C@@]2(OC1)O[C@H]1C[C@H]3[C@@H]4CC=C5C[C@@H](OC(=O)NCc6cnccn6)CC[C@]5(C)[C@H]4CC[C@]3(C)[C@H]1[C@@H]2C	22.3%	–	–
C[C@@H]1CC[C@@]2(OC1)O[C@H]1C[C@H]3[C@@H]4CC=C5C[C@@H](O)CC[C@]5(C)[C@H]4CC[C@]3(C)[C@H]1[C@@H]2C [DISOGENIN]	6.7%	–	–
COc1ccc(CN2CCN(C(=O)O[C@H]3CC[C@@]4(C)C(=CC[C@H]5[C@@H]6C[C@@H]7O[C@]8(CC[C@@H](C)CO8)[C@@H](C)[C@@H]7[C@@]6(C)CC[C@@H]54)C3)CC2)cc1	–	–	inactive
CCN(C)C(=O)O[C@H]1CC[C@@]2(C)C(=CC[C@H]3[C@@H]4C[C@@H]5O[C@]6(CC[C@@H](C)CO6)[C@@H](C)[C@@H]5[C@@]4(C)CC[C@@H]32)C1	4.3%	–	–
C[C@@H]1CC[C@@]2(OC1)O[C@H]1C[C@H]3[C@@H]4CC=C5C[C@@H](OC(=O)NC6CCCC6)CC[C@]5(C)[C@H]4CC[C@]3(C)[C@H]1[C@@H]2C	3.3%	–	–
C[C@@H]1CC[C@@]2(OC1)O[C@H]1C[C@H]3[C@@H]4CC=C5C[C@@H](OC(=O)N(C)Cc6ccccc6)CC[C@]5(C)[C@H]4CC[C@]3(C)[C@H]1[C@@H]2C	43.5%	20.8%	–
C[C@@H]1CC[C@@]2(OC1)O[C@H]1C[C@H]3[C@@H]4CC=C5C[C@@H](OC(=O)NCc6cccnc6)CC[C@]5(C)[C@H]4CC[C@]3(C)[C@H]1[C@@H]2C	3.5%	–	–
C[C@@H]1CC[C@@]2(OC1)O[C@H]1C[C@H]3[C@@H]4CC=C5C[C@@H](OC(=O)NC(C)(C)C)CC[C@]5(C)[C@H]4CC[C@]3(C)[C@H]1[C@@H]2C	7.7%	–	–
C[C@@H]1CC[C@@]2(OC1)O[C@H]1C[C@H]3[C@@H]4CC=C5C[C@@H](OC(=O)NCc6ccc(Cl)cc6)CC[C@]5(C)[C@H]4CC[C@]3(C)[C@H]1[C@@H]2C	56.9%	7%	–
C[C@@H]1CC[C@@]2(OC1)O[C@H]1C[C@H]3[C@@H]4CC=C5C[C@@H](OC(=O)NCc6ccccc6F)CC[C@]5(C)[C@H]4CC[C@]3(C)[C@H]1[C@@H]2C	21%	–	–
C[C@@H]1CC[C@@]2(OC1)O[C@H]1C[C@H]3[C@@H]4CC=C5C[C@@H](OC(=O)N6CCN(Cc7ccc(F)cc7)CC6)CC[C@]5(C)[C@H]4CC[C@]3(C)[C@H]1[C@@H]2C	5.4%	–	–
COc1ccc(CNC(=O)O[C@H]2CC[C@@]3(C)C(=CC[C@H]4[C@@H]5C[C@@H]6O[C@]7(CC[C@@H](C)CO7)[C@@H](C)[C@@H]6[C@@]5(C)CC[C@@H]43)C2)cc1	53.5%	18.6%	–
COc1cccc(CNC(=O)O[C@H]2CC[C@@]3(C)C(=CC[C@H]4[C@@H]5C[C@@H]6O[C@]7(CC[C@@H](C)CO7)[C@@H](C)[C@@H]6[C@@]5(C)CC[C@@H]43)C2)c1	38.8%	9.8%	–
CCNC(=O)O[C@H]1CC[C@@]2(C)C(=CC[C@H]3[C@@H]4C[C@@H]5O[C@]6(CC[C@@H](C)CO6)[C@@H](C)[C@@H]5[C@@]4(C)CC[C@@H]32)C1	10.9%	–	–
CC(C)CNC(=O)O[C@H]1CC[C@@]2(C)C(=CC[C@H]3[C@@H]4C[C@@H]5O[C@]6(CC[C@@H](C)CO6)[C@@H](C)[C@@H]5[C@@]4(C)CC[C@@H]32)C1	25.3%	–	–
